# Data as given in ChEMBL document CHEMBL1146040, “Lactones from a brown alga endophytic fungus (No. ZZF36) from the South China Sea and their antimicrobial activities” (2006).
# Experiments:
# Escherichia coli = test: Antibacterial activity against Escherichia coli ATCC 25922; type: functional
# Fusarium oxysporum = test: Antifungal activity against Fusarium oxysporum f.sp.cubense; type: functional
# Salmonella enteritidis = test: Antibacterial activity against Salmonella enteritidis ATCC 13076; type: functional, Salmonella enterica subsp. enterica serovar Enteritidis; conditions: Salmonella enterica
# Candida albicans = test: Antifungal activity against Candida albicans ATCC 10231; type: functional
# Staphylococcus aureus = test: Antibacterial activity against Staphylococcus aureus ATCC 27154; type: functional
# Bacillus subtilis = test: Antibacterial activity against Bacillus subtilis ATCC 6633; type: functional
Molecule,MIC (Escherichia coli) [µg/mL],MIC (Fusarium oxysporum) [µg/mL],MIC (Salmonella enteritidis) [µg/mL],MIC (Candida albicans) [µg/mL],MIC (Staphylococcus aureus) [µg/mL],MIC (Bacillus subtilis) [µg/mL]
CC1CCCCCCCc2cc(O)cc(O)c2C(=O)O1 (configuration not stated),> 100,50,12.5,100,6.25,12.5
CC1(C)S[C@@H]2[C@H](NC(=O)[C@H](N)c3ccccc3)C(=O)N2[C@H]1C(=O)O [AMPICILLIN],6.25,,50,,> 100,100
CC1CCC(=O)CCCCc2cc(O)cc(O)c2C(=O)O1 (configuration not stated),> 100,> 100,> 100,> 100,> 100,> 100
COc1cc(OC(C)=O)cc2c1C(=O)OC(C)CCCCCCC2 (configuration not stated),> 100,> 100,> 100,> 100,> 100,> 100
COc1c(Br)c(O)c(Br)c2c1C(=O)OC(C)CCCCCCC2 (configuration not stated),> 100,12.5,> 100,> 100,> 100,6.25
COc1cc(O)cc2c1C(=O)O[C@@H](C)CCCCCCC2 [LASIODIPLODIN],> 100,100,> 100,> 100,25,50
NYSTATIN,,3.12,,1.56,,
CC1CC(O)CCCCCc2cc(O)cc(O)c2C(=O)O1 (configuration not stated),> 100,> 100,> 100,> 100,100,> 100
